The results in this text go back to ChEMBL document CHEMBL4017455, “Novel small molecule guanidine Sigma1 inhibitors for advanced prostate cancer” (Bioorg Med Chem Lett, 2017).

Each structure is given as a SMILES string. Converted amounts (≈) assume the structure as drawn. The source made the active and inactive calls. No cut-off for these calls is given here. A value given as a limit tells only on which side of the number the result lay.

The target of data set [1] is T1, Sigma non-opioid intracellular receptor 1 (Homo sapiens, UniProt Q99720). The data set is described as follows: Displacement of [125I]-IPAG from sigma1 in human MDA-MB-468 cell membranes.
T1 sequence (Q99720 whole entry): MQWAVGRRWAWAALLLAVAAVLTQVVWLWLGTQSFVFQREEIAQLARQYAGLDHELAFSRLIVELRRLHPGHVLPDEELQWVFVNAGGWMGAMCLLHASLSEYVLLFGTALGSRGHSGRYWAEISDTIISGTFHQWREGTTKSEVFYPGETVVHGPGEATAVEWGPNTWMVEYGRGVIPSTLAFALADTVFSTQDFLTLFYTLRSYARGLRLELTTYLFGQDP
The target of data set [2] is T2, Androgen receptor (Homo sapiens, UniProt P10275).
T2 sequence (P10275 whole entry): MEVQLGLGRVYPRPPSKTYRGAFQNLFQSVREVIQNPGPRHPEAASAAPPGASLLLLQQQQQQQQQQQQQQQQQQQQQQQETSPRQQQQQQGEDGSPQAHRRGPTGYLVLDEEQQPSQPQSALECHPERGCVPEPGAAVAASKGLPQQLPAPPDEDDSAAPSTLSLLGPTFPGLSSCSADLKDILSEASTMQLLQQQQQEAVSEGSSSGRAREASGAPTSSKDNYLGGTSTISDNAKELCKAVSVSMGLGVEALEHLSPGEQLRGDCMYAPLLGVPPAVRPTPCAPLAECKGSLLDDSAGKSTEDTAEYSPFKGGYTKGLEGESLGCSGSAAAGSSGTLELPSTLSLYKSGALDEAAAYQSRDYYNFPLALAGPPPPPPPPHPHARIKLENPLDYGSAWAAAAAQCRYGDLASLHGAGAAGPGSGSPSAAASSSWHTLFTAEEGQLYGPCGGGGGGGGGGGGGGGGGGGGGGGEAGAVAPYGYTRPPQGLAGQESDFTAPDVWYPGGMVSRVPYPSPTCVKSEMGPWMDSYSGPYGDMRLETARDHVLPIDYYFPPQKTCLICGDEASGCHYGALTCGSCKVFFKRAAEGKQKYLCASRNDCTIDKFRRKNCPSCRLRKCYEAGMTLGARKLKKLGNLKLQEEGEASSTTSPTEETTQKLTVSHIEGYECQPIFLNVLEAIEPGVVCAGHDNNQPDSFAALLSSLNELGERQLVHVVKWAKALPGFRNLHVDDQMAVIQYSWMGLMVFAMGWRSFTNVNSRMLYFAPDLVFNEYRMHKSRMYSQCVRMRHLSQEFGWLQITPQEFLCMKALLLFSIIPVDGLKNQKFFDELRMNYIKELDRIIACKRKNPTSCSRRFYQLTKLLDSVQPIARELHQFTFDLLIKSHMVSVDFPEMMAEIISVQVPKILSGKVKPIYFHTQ
Put plainly: Antagonist activity at full length human androgen receptor expressed in mammalian expression system measured after 22 to 24 hrs by luciferase reporter gene assay.

The target of data set [3] is T3, Voltage-gated inwardly rectifying potassium channel KCNH2 (Homo sapiens, UniProt Q12809). Put plainly: Inhibition of human ERG.
T3 sequence (Q12809 whole entry): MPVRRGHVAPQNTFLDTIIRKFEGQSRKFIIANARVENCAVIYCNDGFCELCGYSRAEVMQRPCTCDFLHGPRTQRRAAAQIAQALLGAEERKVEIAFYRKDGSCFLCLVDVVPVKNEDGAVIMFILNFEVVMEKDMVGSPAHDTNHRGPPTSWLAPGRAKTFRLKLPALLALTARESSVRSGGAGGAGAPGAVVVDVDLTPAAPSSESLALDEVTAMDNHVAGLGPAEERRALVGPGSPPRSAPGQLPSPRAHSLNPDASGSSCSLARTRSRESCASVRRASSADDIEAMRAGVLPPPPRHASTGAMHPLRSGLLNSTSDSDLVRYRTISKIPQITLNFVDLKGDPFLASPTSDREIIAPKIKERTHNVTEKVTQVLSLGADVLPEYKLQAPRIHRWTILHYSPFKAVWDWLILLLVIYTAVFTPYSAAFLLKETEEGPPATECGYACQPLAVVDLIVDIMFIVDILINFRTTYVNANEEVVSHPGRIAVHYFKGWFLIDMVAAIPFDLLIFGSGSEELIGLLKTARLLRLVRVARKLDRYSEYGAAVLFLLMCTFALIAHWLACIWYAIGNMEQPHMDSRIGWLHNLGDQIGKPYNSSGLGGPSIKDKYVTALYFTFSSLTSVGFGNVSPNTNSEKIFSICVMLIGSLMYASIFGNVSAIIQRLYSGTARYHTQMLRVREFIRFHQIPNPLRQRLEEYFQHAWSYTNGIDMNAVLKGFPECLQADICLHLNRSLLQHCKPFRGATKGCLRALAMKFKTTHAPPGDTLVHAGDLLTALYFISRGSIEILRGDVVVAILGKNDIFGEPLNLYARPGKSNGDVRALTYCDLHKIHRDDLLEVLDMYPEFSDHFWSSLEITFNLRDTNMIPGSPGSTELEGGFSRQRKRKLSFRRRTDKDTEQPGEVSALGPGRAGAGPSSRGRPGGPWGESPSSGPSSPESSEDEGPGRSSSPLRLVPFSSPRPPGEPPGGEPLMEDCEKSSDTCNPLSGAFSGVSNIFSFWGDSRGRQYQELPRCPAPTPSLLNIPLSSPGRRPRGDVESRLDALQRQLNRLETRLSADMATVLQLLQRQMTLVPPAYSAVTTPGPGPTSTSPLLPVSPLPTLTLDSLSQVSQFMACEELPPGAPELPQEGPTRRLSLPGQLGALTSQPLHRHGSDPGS
Data set [4] has as its target T3, Voltage-gated inwardly rectifying potassium channel KCNH2. The data set is described as follows: Inhibition of human ERG expressed in CHOK1 cells by Qpatch clamp method.
Data set [5] is described as follows: AUC (0 to infinity) in Swiss mouse plasma at 2 mg/kg, iv. The data set is classed as ADME, organism-based. Also on record: dose 2 mg/kg, time infinity, route intravenous.
Data set [6] has as its system MDA-MB-468. Put plainly: Antiproliferative activity against human MDA-MB-468 cells at 3 to 20 uM by CellTiter-Glo assay. It is filed as functional, cell-based.
For data set [7], the system named is Plasma. The data set is described as follows: Protein binding in mouse plasma. The data set is classed as ADME, cell-free.
Data set [8] deals with Plasma. The data set is described as follows: Protein binding in human plasma. It is filed as ADME, cell-free.
Data set [9] in a line: Stability in mouse plasma. It is filed as ADME, cell-free. The following applies: read-out: Stability.
The nature of data set [10]: Stability in human plasma. Conditions: read-out: Stability. It is filed as ADME, cell-free.
The nature of data set [11]: Stability in mouse liver microsomes. It is filed as ADME, microsome. The following applies: read-out: Stability.
The nature of data set [12]: Stability in human liver microsomes. The following applies: read-out: Stability. The data set is classed as ADME, microsome. In general terms: Liver microsomes are vesicles of endoplasmic reticulum, rich in cytochrome P450 enzymes.
A short description of data set [13]: Solubility of compound in PBS buffer at pH 7.4. It is filed as physicochemical.
Data set [14] can be described thus: AUC (0 to infinity) in Swiss mouse plasma at 10 mg/kg, ip. It is filed as ADME, organism-based. Further details: dose 10 mg/kg, route intraperitoneal, time infinity.
Data set [15] in a line: AUC (0 to infinity) in Swiss mouse brain at 10 mg/kg, ip. The data set is classed as ADME, organism-based. Further details: dose 10 mg/kg, time infinity, route intraperitoneal.
Data set [16] is described as follows: Volume of distribution in Swiss mouse plasma at 2 mg/kg, iv. The data set is classed as ADME, organism-based.
A short description of data set [17]: Clearance in Swiss mouse plasma at 2 mg/kg, iv.
Data set [18] in a line: AUC (0 to infinity) in Swiss mouse plasma at 10 mg/kg, po. It is filed as ADME, organism-based. Also on record: dose 10 mg/kg, time infinity, route oral.
A short description of data set [19]: Half life in Swiss mouse plasma at 10 mg/kg, po.
The nature of data set [20]: AUC (0 to infinity) in Swiss mouse plasma at 30 mg/kg, po. It is filed as ADME, organism-based. Further details: dose 30 mg/kg, time infinity, route oral.
A short description of data set [21]: Half life in Swiss mouse plasma at 30 mg/kg, po.
A short description of data set [22]: Ratio of drug level in Swiss mouse brain to plasma at 10 mg/kg, ip.
Data set [23] deals with Plasma. The following applies: mouse, in vivo, ip, 10 mg/kg.
Data set [24] has as its system Brain. Conditions: mouse, in vivo, ip, 10 mg/kg.
A short description of data set [25]: in vivo. The following applies: Swiss, mouse, plasma, po, 10 mg/kg.
The nature of data set [26]: in vivo. Conditions: Swiss, mouse, plasma, po, 10 mg/kg. The source holds these as a separate data set.
A short description of data set [27]: in vivo. Conditions: Swiss, mouse, plasma, po, 10 mg/kg. The source holds these as a separate data set.
Data set [28] in a line: in vivo. The following applies: Swiss, mouse, plasma, po, 30 mg/kg.
A short description of data set [29]: in vivo. The following applies: Swiss, mouse, plasma, po, 30 mg/kg. The source holds these as a separate data set.
Data set [30] is described as follows: in vivo. Conditions: Swiss, mouse, plasma, po, 30 mg/kg. The source holds these as a separate data set.
For data set [31], the target named is T1, Sigma non-opioid intracellular receptor 1. The data set is described as follows: Displacement of [3H]-(+)-pentazocine from sigma1 in human MDA-MB-468 cell membranes. Background: Displacement assays read how much labelled ligand stays bound in the presence of the test substance.

As usually defined, the Ki is the dissociation constant of the complex between target and ligand, obtained from inhibition or displacement. As for `N=C(Nc1ccc(I)cc1)Nc1ccc(I)cc1`, the Ki in [1] came out at 3 nM.
For orientation: EC50 means the midpoint of the concentration-response curve. A lower EC50 goes with greater potency. Usually IC50 stands for the concentration that inhibits the measured activity by half. High values mean weaker potency, low ones greater potency. As to `NC(=NC12CC3CC(CC(C3)C1)C2)Nc1ccc(I)cc1`, the EC50 in data set [2] was 9500 to 9750 nM. Further, the IC50 in [3] amounted to 491 nM; in data set [4], 2600 nM.
One may read the AUC(0-inf) as total exposure, with the tail of the curve extrapolated. As a reminder, the solubility is the concentration that dissolves in the medium under given conditions. A higher solubility goes with much dissolved substance. In general, Vd refers to a proportionality between amount in the body and measured concentration, not a real space. The low end stands for little distribution into tissue, the high end for wide distribution into tissue. As a reminder, the clearance is the volume of plasma or blood freed of the substance per unit of time. For orientation: Kp means the ratio of the level in a tissue or fluid to that in plasma or blood. Broadly, the Cmax is the highest concentration seen after dosing. In general, Tmax refers to the time from dosing to the highest level. In general, AUC(0-t) refers to exposure summed from dosing to a finite time, without extrapolation to infinity. A high value points to more exposure. With `N=C(NCCCOc1ccc(F)cc1)Nc1ccc(Cl)cc1`, the AUC(0-inf) in data set [5] is 57 to 71 ng·h/mL; in data set [14] it was 166 ng·h/mL; in data set [15] it was 856 ng·h/mL; in [18] it was 141 ng·h/mL; in [20], 480 ng·h/mL. This compound also showed an EC50 in data set [2] of 12700 nM. Besides, the result in [6] was Active. The values for the PPB in data set [7] and in data set [8] were 88.8% and 93.4%, respectively. The half-life in data set [9] is more than 6 h; in data set [10], more than 6 h; in [11], 0.413 h; in data set [12], more than 1.5 h; in data set [19], more than 3 h; in [21], more than 3 h. The solubility in data set [13] turned out to be 4580 µg/mL (≈ 14.2 mM). The same compound came in with a Vd in data set [16] of 57.6 to 91 L/kg. Also, the clearance in data set [17] was 469 to 586 mL/min/kg. The Kp in [22] was 5. Also, the Cmax in data set [23] turned out to be 438 nM; in data set [24], 2150 nM; in data set [25] it was 304 nM; in data set [28], 674 nM. In addition, the Tmax in data set [26] is 0.25 h; in data set [29] it was 1 h. For the same compound, the AUC(0-t) came to 119 ng·h/mL in data set [27] and 414 ng·h/mL in data set [30].
Regarding `N=C(NCCCOc1ccc(F)cc1)Nc1ccc(C(F)(F)F)cc1`, the affinity in data set [31], expressed as Ki, was 45.3 nM.
In [2], `COc1ccc(NC(=N)NCCCOc2ccc(F)cc2)cc1` returned an EC50 of 28100 nM. The Ki in [31] came to 13.4 nM. Further, the PPB in data set [7] amounted to 82.1%; in data set [8], 75.1%. Further, the half-life in data set [9] is more than 6 h; in data set [10] it was more than 6 h; in data set [11], 0.117 h; in [12] it was 0.387 h. The solubility in [13] stood at 8450 µg/mL (≈ 26.6 mM). Also, the IC50 in data set [3] came to 417 nM.
In turn, `N=C(NCCCOc1ccc(F)cc1)NCCCOc1ccc(F)cc1` displayed a Ki in data set [1] of more than 1000 nM.
Consider `N=C(NCCCOc1ccc(F)cc1)Nc1ccc(I)cc1`, for which the Ki in [31] came to 46.1 nM. The result in data set [6] was Active. In addition, the PPB was found to be 97.9% in data set [7] and 96.6% in data set [8]. Also, the half-life in data set [9] is more than 6 h; in data set [10], more than 6 h; in [11] it was 0.41 h; in data set [12] it was more than 1.5 h. For the same compound, the solubility in data set [13] was 5370 µg/mL (≈ 13 mM). Also, in data set [3], the IC50 came out at 109 nM.
`CC(=O)O[C@H]1CC[C@@]2(C)C(=CC[C@@H]3[C@@H]2CC[C@]2(C)C(c4cccnc4)=CC[C@@H]32)C1` [ABIRATERONE ACETATE] gave an EC50 in data set [2] of 17000 to 17100 nM.
